# According to patent US20250154141A1 (University of Florida Research Foundation, Incorporated, priority 2021, published 2025):
# Read-outs that look alike come from different tables or passages of the source.
# What was measured:
# [1] = test system: MOLT-4; test: Cell viability assay (MTS) in MOLT-4 cells; format: cell-based; conditions: Homo sapiens
# Experimental: (§1) Acute lymphoblastic leukemia cells (MOLT-4 and RS4; 11) were incubated with increasing concentrations of Bcl-xL degraders for 48 h. Cell viability was measured by tetrazolium-based MTS assay.
# [2] = test system: RS4; 11; test: Cell viability assay (MTS) in RS4; 11 cells; format: cell-based; conditions: Homo sapiens
# Experimental: as §1
# [3] = MOLT-4, Table 2, 48 hr, MTS, read-out: Anti-Cancer Activity IC50 (48 hr) MOLT-4
# [4] = RS4-11, Table 2, 48 hr, MTS, read-out: Anti-Cancer Activity IC50 (48 hr) RS4, 11
SMILES,"IC50 [1, 3] [nM]","IC50 [2, 4] [nM]",also measured
"Cc1ncsc1-c1ccc([C@H](C)NC(=O)[C@@H]2C[C@@H](O)CN2C(=O)[C@@H](NC(=O)CCCCCCC(=O)N2CCN(CC3(C)CCC(c4ccc(Cl)cc4)=C(CN4CCN(c5ccc(C(=O)NS(=O)(=O)c6ccc(N[C@H](CCN7CCC(CO)CC7)CSc7ccccc7)c([N+](=O)[O-])c6)cc5)CC4)C3)CC2)C(C)(C)C)cc1 (stereo partly drawn) [Compound 47, (2S,4R)-1-((2S)-2-(8-(4-((4′-chloro-6-((4-(4-(((4-(((R)-4-(4-(hydroxymethyl)piperidin-1-yl)-1-(phenylthio)butan-2-yl)amino)-3-nitrophenyl)sulfonyl)carbamoyl)phenyl)piperazin-1-yl)methyl)-4-methyl-2,3,4,5-tetrahydro-[1,1′-biphenyl]-4-yl)methyl)piperazin-1-yl)-8-oxooctanamido)-3,3-dimethylbutanoyl)-4-hydroxy-N—((S)-1-(4-(4-methylthiazol-5-yl)phenyl)ethyl)pyrrolidine-2-carboxamide]",100 to 500,20 to 100,
"Cc1ncsc1-c1ccc([C@H](C)NC(=O)[C@@H]2C[C@@H](O)CN2C(=O)[C@@H](NC(=O)CCCCCCC(=O)N2CCN(CC3(C)CCC(c4ccc(Cl)cc4)=C(CN4CCN(c5ccc(C(=O)NS(=O)(=O)c6ccc(N[C@H](CCN7CCCCC7CO)CSc7ccccc7)c([N+](=O)[O-])c6)cc5)CC4)C3)CC2)C(C)(C)C)cc1 (stereo partly drawn) [Compound 45, (2S,4R)-1-((2S)-2-(8-(4-((4′-chloro-6-((4-(4-(((4-(((2R)-4-(2-(hydroxymethyl)piperidin-1-yl)-1-(phenylthio)butan-2-yl)amino)-3-nitrophenyl)sulfonyl)carbamoyl)phenyl)piperazin-1-yl)methyl)-4-methyl-2,3,4,5-tetrahydro-[1,1′-biphenyl]-4-yl)methyl)piperazin-1-yl)-8-oxooctanamido)-3,3-dimethylbutanoyl)-4-hydroxy-N—((S)-1-(4-(4-methylthiazol-5-yl)phenyl)ethyl)pyrrolidine-2-carboxamide]",100 to 500,20 to 100,
"Cc1ncsc1-c1ccc([C@H](C)NC(=O)[C@@H]2C[C@@H](O)CN2C(=O)[C@@H](NC(=O)CCCCCCCC(=O)N2CCN(CCC3(C)CCC(c4ccc(Cl)cc4)=C(CN4CCN(c5ccc(C(=O)NS(=O)(=O)c6ccc(N[C@H](CCN7CCOCC7)CSc7ccccc7)c(S(=O)(=O)C(F)(F)F)c6)cc5)CC4)C3)CC2)C(C)(C)C)cc1 (stereo partly drawn) [Compound 29, (2S,4R)-1-((2S)-2-(9-(4-(2-(4′-chloro-4-methyl-6-((4-(4-(((4-(((R)-4-morpholino-1-(phenylthio)butan-2-yl)amino)-3-((trifluoromethyl)sulfonyl)phenyl)sulfonyl)carbamoyl)phenyl)piperazin-1-yl)methyl)-2,3,4,5-tetrahydro-[1,1′-biphenyl]-4-yl)ethyl)piperazin-1-yl)-9-oxononanamido)-3,3-dimethylbutanoyl)-4-hydroxy-N—((S)-1-(4-(4-methylthiazol-5-yl)phenyl)ethyl)pyrrolidine-2-carboxamide]",100 to 500,20 to 100,
Cc1ncsc1-c1ccc([C@H](C)NC(=O)[C@@H]2C[C@@H](O)CN2C(=O)[C@@H](NC(=O)CCCCCCC(=O)N2CCN(C[C@]3(C)CCC(c4ccc(Cl)cc4)=C(CN4CCN(c5ccc(C(=O)NS(=O)(=O)c6ccc(N[C@H](CCN7CCCC(F)(F)C7)CSc7ccccc7)c(S(=O)(=O)C(F)(F)F)c6)cc5)CC4)C3)CC2)C(C)(C)C)cc1 [Compound 88],500 to 10000,500 to 10000,
Cc1ncsc1-c1ccc([C@H](C)NC(=O)[C@@H]2C[C@@H](O)CN2C(=O)[C@@H](NC(=O)CN(C)CCCNC(=O)c2ccc(N3CCN(C[C@]4(C)CCC(c5ccc(Cl)cc5)=C(CN5CCN(c6ccc(C(=O)NS(=O)(=O)c7ccc(N[C@H](CCN8CCCOCC8)CSc8ccccc8)c(S(=O)(=O)C(F)(F)F)c7)cc6)CC5)C4)CC3)nn2)C(C)(C)C)cc1 [Compound 112],,,"IC50 ([1]; MOLT-4, 48 h, read-out: Anti-Cancer Activity IC50 (48 hr) MOLT-4): 20 to 100 nM; IC50 ([2]; RS4-11, 48 h, read-out: Anti-Cancer Activity IC50 (48 hr) RS4, 11): < 20 nM"
"Cc1ncsc1-c1ccc([C@H](C)NC(=O)[C@@H]2C[C@@H](O)CN2C(=O)[C@@H](NC(=O)CCCCCCC(=O)N2CCN(CC3(C)CCC(c4ccc(Cl)cc4)=C(CN4CCN(c5ccc(C(=O)NS(=O)(=O)c6ccc(N[C@H](CCN7CCC(O)CC7)CSc7ccccc7)c([N+](=O)[O-])c6)cc5)CC4)C3)CC2)C(C)(C)C)cc1 (stereo partly drawn) [Compound 46, (2S,4R)-1-((2S)-2-(8-(4-((4′-chloro-6-((4-(4-(((4-(((R)-4-(4-hydroxypiperidin-1-yl)-1-(phenylthio)butan-2-yl)amino)-3-nitrophenyl)sulfonyl)carbamoyl)phenyl)piperazin-1-yl)methyl)-4-methyl-2,3,4,5-tetrahydro-[1,1′-biphenyl]-4-yl)methyl)piperazin-1-yl)-8-oxooctanamido)-3,3-dimethylbutanoyl)-4-hydroxy-N—((S)-1-(4-(4-methylthiazol-5-yl)phenyl)ethyl)pyrrolidine-2-carboxamide]",20 to 100,< 20,"IC50 ([1]; MOLT-4, Table 5, 48 h, read-out: MOLT-4 48 h IC50): 55.9 nM; IC50 ([2]; RS4-11, Table 5, 48 h, read-out: RS4 48 h IC50): 5.8 nM"
Cc1ncsc1-c1ccc([C@H](C)NC(=O)[C@@H]2C[C@@H](O)CN2C(=O)[C@@H](NC(=O)CCCCCCC(=O)N2CCN(C[C@]3(C)CCC(c4ccc(Cl)cc4)=C(CN4CCN(c5ccc(C(=O)NS(=O)(=O)c6ccc(N[C@H](CCN7CCOC8(CCC8)C7)CSc7ccccc7)c(S(=O)(=O)C(F)(F)F)c6)cc5)CC4)C3)CC2)C(C)(C)C)cc1 [Compound 93],500 to 10000,500 to 10000,
Cc1ncsc1-c1ccc([C@H](C)NC(=O)[C@@H]2C[C@@H](O)CN2C(=O)[C@@H](NC(=O)CCCCCOCc2cn(CCCC(=O)NCC3(C)CCC(c4ccc(Cl)cc4)=C(CN4CCN(c5ccc(C(=O)NS(=O)(=O)c6ccc(N[C@H](CCN7CCOCC7)CSc7ccccc7)c(S(=O)(=O)C(F)(F)F)c6)cc5)CC4)C3)nn2)C(C)(C)C)cc1 (some centres unmarked) [Compound 22],100 to 500,100 to 500,

# Further lines, with some results ahead:
"IC50 [1, 3] [nM]","IC50 [2, 4] [nM]",SMILES,also measured
20 to 100,20 to 100,Cc1ncsc1-c1ccc([C@H](C)NC(=O)[C@@H]2C[C@@H](O)CN2C(=O)[C@@H](NC(=O)CCCNC(=O)c2ccc(N3CCN(CC4(C)CCC(c5ccc(Cl)cc5)=C(CN5CCN(c6ccc(C(=O)NS(=O)(=O)c7ccc(N[C@H](CCN8CCOCC8)CSc8ccccc8)c(S(=O)(=O)C(F)(F)F)c7)cc6)CC5)C4)CC3)nc2)C(C)(C)C)cc1 (some centres unmarked) [Compound 2],
20 to 100,100 to 500,Cc1ncsc1-c1ccc([C@H](C)NC(=O)[C@@H]2C[C@@H](O)CN2C(=O)[C@@H](NC(=O)CCCCCCC(=O)N2C(C)CN(C[C@]3(C)CCC(c4ccc(Cl)cc4)=C(CN4CCN(c5ccc(C(=O)NS(=O)(=O)c6ccc(N[C@H](CCN7CCCOCC7)CSc7ccccc7)c(S(=O)(=O)C(F)(F)F)c6)cc5)CC4)C3)CC2C)C(C)(C)C)cc1 (some centres unmarked) [compound 83],
20 to 100,20 to 100,Cc1ncsc1-c1ccc([C@H](C)NC(=O)[C@@H]2C[C@@H](O)CN2C(=O)[C@@H](NC(=O)CCCNC(=O)c2ccc(N3CCN(CCN(C)CC4(C)CCC(c5ccc(Cl)cc5)=C(CN5CCN(c6ccc(C(=O)NS(=O)(=O)c7ccc(N[C@H](CCN8CCOCC8)CSc8ccccc8)c(S(=O)(=O)C(F)(F)F)c7)cc6)CC5)C4)CC3)nc2)C(C)(C)C)cc1 (some centres unmarked) [Compound 8],
20 to 100,< 20,"Cc1ncsc1-c1ccc([C@H](C)NC(=O)[C@@H]2C[C@@H](O)CN2C(=O)[C@@H](NC(=O)CCCCCCC(=O)N2CCN(C[C@]3(C)CCC(c4ccc(Cl)cc4)=C(CN4CCN(c5ccc(C(=O)NS(=O)(=O)c6ccc(N[C@H](CCN7CCOC[C@H]7C)CSc7ccccc7)c(S(=O)(=O)C(F)(F)F)c6)cc5)CC4)C3)CC2)C(C)(C)C)cc1 [Compound 89, (2S,4R)-1-((S)-2-(8-(4-(((R)-4′-chloro-4-methyl-6-((4-(4-(((4-(((R)-4-((R)-3-methylmorpholino)-1-(phenylthio)butan-2-yl)amino)-3-((trifluoromethyl)sulfonyl)phenyl)sulfonyl)carbamoyl)phenyl)piperazin-1-yl)methyl)-2,3,4,5-tetrahydro-[1,1′-biphenyl]-4-yl)methyl)piperazin-1-yl)-8-oxooctanamido)-3,3-dimethylbutanoyl)-4-hydroxy-N—((S)-1-(4-(4-methylthiazol-5-yl)phenyl)ethyl)pyrrolidine-2-carboxamide]",
20 to 100,20 to 100,Cc1ncsc1-c1ccc([C@H](C)NC(=O)[C@@H]2C[C@@H](O)CN2C(=O)[C@@H](NC(=O)CCCCCNC(=O)c2ccc(N3CCN(CCN(C)CC4(C)CCC(c5ccc(Cl)cc5)=C(CN5CCN(c6ccc(C(=O)NS(=O)(=O)c7ccc(N[C@H](CCN8CCOCC8)CSc8ccccc8)c(S(=O)(=O)C(F)(F)F)c7)cc6)CC5)C4)CC3)nc2)C(C)(C)C)cc1 (some centres unmarked) [Compound 9],
< 20,< 20,"Cc1ncsc1-c1ccc([C@H](C)NC(=O)[C@@H]2C[C@@H](O)CN2C(=O)[C@@H](NC(=O)CCCCCCC(=O)N2CCN(C[C@]3(C)CCC(c4ccc(Cl)cc4)=C(CN4CCN(c5ccc(C(=O)NS(=O)(=O)c6ccc(N[C@H](CCN7CCCOCC7)CSc7ccccc7)c(S(=O)(=O)C(F)(F)F)c6)cc5)CC4)C3)CC2)C(C)(C)C)cc1 [Compound 59, (2S,4R)-1-((S)-2-(8-(4-(((R)-6-((4-(4-(((4-(((R)-4-(1,4-oxazepan-4-yl)-1-(phenylthio)butan-2-yl)amino)-3-((trifluoromethyl)sulfonyl)phenyl)sulfonyl)carbamoyl)phenyl)piperazin-1-yl)methyl)-4′-chloro-4-methyl-2,3,4,5-tetrahydro-[1,1′-biphenyl]-4-yl)methyl)piperazin-1-yl)-8-oxooctanamido)-3,3-dimethylbutanoyl)-4-hydroxy-N—((S)-1-(4-(4-methylthiazol-5-yl)phenyl)ethyl)pyrrolidine-2-carboxamide]","IC50 ([1]; MOLT-4, Table 4, 48 h, read-out: MOLT-4 48 h IC50): 0.7 nM; IC50 ([2]; RS4-11, Table 4, 48 h, read-out: RS4 48 h IC50): 1.6 nM"
